Residues, ends and D or L forms follow the SMILES beside them.
Columns and labels:
Type in all cases: in vitro ADME
[1] = test system: Full thickness pig skin; assay: In vitro delivery of siRNA to skin in Franz diffusion cells; conditions: 100 microliters of 25 nmole/ml; area of 2 sq. cm; 24 hours
Experimental: Full thickness pig skin (Lampire Biological Laboratories, Pipersville, Pa.) was used. The skin was stored at −80° C. and defrosted immediately prior to use. Briefly, the skin was allowed to thaw with the stratum corneum side up left open to the atmosphere for at least half hour. Skin disks of 36 mm were punched out. The subcutaneous fatty tissue was carefully removed from the dermis, and the hair shaft was cut off to no more than 4 mm. The skin piece was cleaned with PBS (pH 7.4). […]
In vitro skin penetration and deposition experiments of different formulations were run in Franz diffusion cells occlusively and maintained at 37±1° C. throughout the experiments. […] At the end of an experiment, a sample of 1 ml was withdrawn from the receptor phase for concentration measurement by fluorescence assay using a micro-plate reader (SAFIRE, XFLUOR4, V4.50, Tecan Group Ltd, NY, US). […]
The stratum corneum was removed by striping with an adhesive tape (SCOTCH® Transparent Tape, 3M Corporate, St. Paul, Minn.). […] The supernatant were withdrawn, diluted if necessary and analyzed by fluorescence measurement.
The concentrations of FAM-GAPDH-siRNA and FAM-GAPDH-siRNA-SPACE-Peptide conjugates were determined by fluorescence spectroscopy. Fluorescence detection was performed at an excitation of 495 nm and an emission of 525 nm for both conjugates. […]

[2] = test system: epidermis and dermis from porcine skin; assay: Partitioning of SPACE Peptide into isolated epidermis and dermis; conditions: ratio of concentrations in skin layer and surrounding PBS; aqueous solution of SPACE Peptide; after 24 hours
Experimental: FIG. 5 is a schematic representation of the measurement of partitioning of SPACE peptide. FITC-SPACE peptide was incubated epidermis-SC and dermis for […] at 37° C. and the amount of SPACE peptide partitioned into the tissue was measured.
In these experiments, epidermis and dermis from porcine skin were isolated and placed in separate vials in an aqueous solution of SPACE Peptide of SEQ ID NO: 13. The amount of SPACE Peptide that partitioned into each skin layer was measured after 24 hours. The ratio of concentrations in skin layers and surrounding PBS was used to determine the partition coefficient.

[3] = test system: Full thickness pig skin
Experimental: Full thickness pig skin (Lampire Biological Laboratories, Pipersville, Pa.) was used. The skin was stored at −80° C. and defrosted immediately prior to use. Briefly, the skin was allowed to thaw with the stratum corneum (SC) side up left open to the atmosphere. Skin disks of 36 mm were punched out. The subcutaneous fatty tissue was carefully removed from the dermis, and the hair shaft was clipped to no more than 4 mm. The skin pieces were cleaned with PBS (pH 7.4). Subsequently, the integrity of the skin disks were checked with a skin conductivity measurement to ensure that samples were free from any surface irregularity such as tiny holes or crevices in the portion that was used for skin penetration and deposition studies.
In vitro skin penetration and deposition experiments of different liposomal systems containing a SPACE Peptide labeled with fluorescein isothiocyanate (FITC-SPACE), CsA, or fluorescent hyaluronidase (Fluorescein-HA) were run in Franz diffusion cells occlusively and maintained at 37±1° C. throughout experiments using an oven. The effective penetration area and receptor cell volume were 1.77 cm^2 and 12.0 ml, respectively. The acceptor compartment was filled with PBS pH 7.4 as the receptor medium. Each test formulation was investigated in triplicate. Skin disks were mounted with the SC side up and the donor compartment left dry and open to atmosphere for 0.5 hour before test formulation application. Caution was taken to remove all air bubbles between the underside of the skin (dermis) and the acceptor solution. The skin was stretched in all directions to avoid the presence of furrows.
100-200 μL of the test formulation was applied to skin surface using a pipette. The experiments were carried out under occlusion with light protection. The incubation time of the skin with each test formulation was 24 hours. At the end of an experiment, a sample of 1-3 mL was withdrawn from the receptor phase for concentration measurement by fluorescence assay using a micro-plate reader (SAFIRE, XFLUOR4, V4.50, Tecan Group Ltd, NY, United States of America) for fluorescence. In the case of CsA experiments, a sample of 3 ml was withdrawn from the receptor phase for ^3H-CsA measurement by a liquid scintillation counter (TRI-GARB 2100TR, Packard Instrument Company, Downers Grove, Ill.). The formulations were removed from the skin by washing five times with PBS (pH 7.4). After cleaning, the skin was transferred onto a device for tape-stripping the SC.
The stratum corneum was removed by striping with an adhesive tape (SCOTCH® Transparent Tape, 3M Corporate, St. Paul, Minn.). In order to avoid any furrows, which could be a reason for false results of the stripping procedure, the skin was stretched and mounted on cork discs as mentioned previously. The skin was covered with a TEFLON® mask with a central hole of 15 mm in diameter. Adhesive tape was put onto the skin and a weight of 2 kg was placed on the tape for 10 seconds. The tape was rapidly removed with forceps and transferred into a glass vial of suitable size. Ten stripping procedures were performed consecutively. For analytical reasons, the stripped tapes were collected in glass vials according the following scheme: vial 1=strip 1st, vial 2=strip 2nd-5th, and vial 3=strip 6th-10th. After tape-stripping, the epidermis sheet was separated from the dermis with a sterile surgical scalpel and cut into small pieces and collected into a glass vial. […]

[4] = test system: EPIDERM™ tissue; assay: Penetration of SPACE Peptide formulations across EPIDERM tissue; conditions: 100 μl on 2 cm^2, 24 hours
Experimental: Additional experiments performed using EPIDERM™ tissue confirmed penetration of SPACE Peptide across the skin. For this purpose, the SPACE Peptide formulations were prepared using the methods described herein above. EPIDERM™ tissues were obtained from MatTek Corporation (Ashland, Mass.). […] A 100 microliter formulation applied on EPIDERM™ tissue for 24 hours was determined to deliver 25% of SPACE Peptide across EPIDERM™ tissue.
FIG. 8C is a bar graph showing delivery of a fluorescent label to EPIDERM™ (left column of each pair) and a pig skin model (right column of each pair) using different formulations the contain SPACE Peptides. A 100 μl sample of various formulations was placed on a 2 cm^2 skin sample and penetration was tested 24 hours after application.

Compound: 5′-FAM-GACGUAAACGGCCACAAGUUC-3′ [siRNA aqueous solution]
- penetration of siRNA into skin (applied dose) [1]: 3.3%

Compound: C[C@H](N)C(=O)N[C@H]1CSSC[C@@H](C(=O)NCC(=O)O)NC(=O)[C@H](CCC(N)=O)NC(=O)[C@H](Cc2c[nH]cn2)NC(=O)[C@H](CCC(N)=O)NC(=O)[C@H]([C@@H](C)O)NC(=O)[C@H](CO)NC(=O)CNC(=O)[C@H]([C@@H](C)O)NC1=O [SPACE Peptide] (HELM PEPTIDE1{A.C.T.G.S.T.Q.H.Q.C.G}$PEPTIDE1,PEPTIDE1,2:R3-10:R3$$$V2.0; N-terminus and C-terminus assumed)
- partition coefficient in the dermis [2]: 4.3
- partition coefficient in the epidermis [2]: 9.8
- penetration of FITC label into skin layers (summary of FIG. 8B) [3]: enhanced penetration of FITC-SPACE Peptide formulations

Compound: C[C@H](NC(=O)CCCCCNC(=S)Nc1ccc2c(c1)C(=O)OC21c2ccc(O)cc2Oc2cc(O)ccc21)C(=O)N[C@H]1CSSC[C@@H](C(=O)NCC(=O)O)NC(=O)[C@H](CCC(N)=O)NC(=O)[C@H](Cc2c[nH]cn2)NC(=O)[C@H](CCC(N)=O)NC(=O)[C@H]([C@@H](C)O)NC(=O)[C@H](CO)NC(=O)CNC(=O)[C@H]([C@@H](C)O)NC1=O [FITC-SPACE] (HELM PEPTIDE1{[O=C1OC2(c3ccc(O)cc3Oc3cc(O)ccc32)c2ccc(NC(=S)[*:2])cc21].[O=C(CCCCCN[*:1])[*:2]].A.C.T.G.S.T.Q.H.Q.C.G}$PEPTIDE1,PEPTIDE1,4:R3-12:R3$$$V2.0; C-terminus assumed)
- penetration into EPIDERM tissue (FIG. 8C) [4]: penetrated into the EPIDERM™ tissue

Compound: Hyaluronic acid [HA]
- HA delivery in the epidermis [3]: less than 0.5 microgram per sq. cm
- HA delivery, formulation made at pH 8 versus otherwise identical formulation at pH 4 [3]: delivered less HA
- amount of HA in the skin compared with the receiver compartment [3]: significantly higher
- topically-applied HA penetrating into skin [3]: about 17%

From patent US20140227174A1, “SKIN PERMEATING AND CELL ENTERING (SPACE) PEPTIDES AND METHODS OF USE THEREFOR” (CONVOY THERAPEUTICS, priority 2013, published 2014)
